Measured values published in PubChem BioAssay (NCI).
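Following 48 hours of exposure in 96-well plates, responses at five concentrations were used to interpolate endpoints linearly. Abbreviation: GI50, concentration required for 50% inhibition of growth. TGI is the concentration that stops growth completely.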

What was measured:
Assay in all cases: NCI-60 cell line screen, 48 h
A549 NSCLC = system: A549 NSCLC
MCF7 breast = system: MCF7 breast
NCI-H460 lung = system: NCI-H460 lung
SF-295 CNS = system: SF-295 CNS
NCI-H522 lung = system: NCI-H522 lung
TK-10 renal = system: TK-10 renal
BT-549 breast = system: BT-549 breast
LOX IMVI melanoma = system: LOX IMVI melanoma

| SMILES | GI50 (A549 NSCLC) | TGI (A549 NSCLC) | GI50 (MCF7 breast) | TGI (MCF7 breast) | GI50 (NCI-H460 lung) | TGI (NCI-H460 lung) | GI50 (SF-295 CNS) | TGI (SF-295 CNS) | GI50 (NCI-H522 lung) | TGI (NCI-H522 lung) | GI50 (TK-10 renal) | TGI (TK-10 renal) | GI50 (BT-549 breast) | TGI (BT-549 breast) | GI50 (LOX IMVI melanoma) | TGI (LOX IMVI melanoma) |
| --- | --- | --- | --- | --- | --- | --- | --- | --- | --- | --- | --- | --- | --- | --- | --- | --- |
| Fc1ccc([C@@H]2CCNC[C@H]2COc2ccc3c(c2)OCO3)cc1 | 14.6 µM | 29 µM | 3.23 µM | 14.6 µM | 5.51 µM | 18.6 µM | 4.07 µM | 17.1 µM | 12 µM | 25.4 µM | 11.3 µM | 23.8 µM | 12.2 µM | 26.1 µM |  |  |
| O=C(Nc1ccc(Nc2ccncc2)cc1)c1ccc(Nc2ccnc3ccc([N+](=O)[O-])cc23)cc1[N+](=O)[O-] | 3.95 µM | > 44.2 µM | 4.73 µM | > 100 µM | 9.96 µM | > 100 µM | 6.69 µM | 98.3 µM | 21.9 µM | 68.6 µM | 27.9 µM | > 80.2 µM | > 78.5 µM | > 100 µM | 4.82 µM | > 51 µM |
| COc1ccc(-n2cc(-c3cc(OC)c(OC)c(OC)c3)[nH]c2=S)cc1Cl | 65.5 µM | > 100 µM | 68 µM | > 100 µM | 18.9 µM | > 100 µM | 43 µM | > 100 µM | > 100 µM | > 100 µM | 17.2 µM | 66.7 µM | 10.3 µM | 31.3 µM | 6.12 µM | > 100 µM |
| O=C1NC(=O)[C@@H](c2c[nH]c3ccccc23)[C@@H]1c1c[nH]c2ccccc12 | > 25 µM | > 25 µM | > 25 µM | > 25 µM | > 25 µM | > 25 µM | > 25 µM | > 25 µM | > 25 µM | > 25 µM | > 25 µM | > 25 µM | > 25 µM | > 25 µM | > 25 µM | > 25 µM |
| CN1CCN(c2ccc3nc(-c4[nH]ncc4Nc4ncnc5c4OCCCN5)[nH]c3c2)CC1 | < 0.01 µM | 0.116 µM | < 0.01 µM | 0.145 µM | 0.0208 µM | 0.0804 µM | 0.0162 µM | 0.0769 µM | < 0.0117 µM | 0.0488 µM | 0.0166 µM | 0.0576 µM | 0.0108 µM | 0.0384 µM | < 0.01 µM | 0.0202 µM |
| Nc1nccc2c1ccn2-c1cccc(NC(=O)c2ccc(N3CCOCC3)c(C(F)(F)F)c2)c1 | 0.922 µM | > 50 µM | 0.181 µM | > 18.5 µM | 0.297 µM | 5.42 µM | 0.371 µM | 1.85 µM | 0.288 µM | 2.45 µM | 1.56 µM | 17.3 µM | 1.04 µM | 5.5 µM | 0.997 µM | > 16.2 µM |
| CCCC(C)c1c(Cl)nc(Cl)nc1Cl (stereo not drawn) |  | 29.4 µM |  | 26.3 µM |  | 45.6 µM |  | 37 µM |  | 5.32 µM |  | 37.4 µM |  | 5.16 µM |  | > 100 µM |
| COc1cnc2c(c1)C(=O)c1c-2n(CCCNCCN2CCOCC2)c(=O)c2cc([N+](=O)[O-])ccc12 |  |  | 0.0323 µM | 10.2 µM | 0.0411 µM | 1.03 µM | 0.0735 µM | 0.964 µM | 0.0787 µM | 1.38 µM | 0.73 µM | 3.17 µM | 0.286 µM | 4.13 µM | 0.0413 µM | 0.216 µM |
| COc1ccc(-c2nnc(SCC(=O)Nc3ccc(C(=O)/C=C/c4cc(OC)c(OC)c(OC)c4)cc3)n2-c2ccccc2)cc1OC | 4.33 µM | > 10 µM | 0.382 µM | > 10 µM | 8.54 µM | > 10 µM | > 10 µM | > 10 µM |  |  | > 10 µM | > 10 µM | 1.98 µM | 7.99 µM | 1.74 µM | 4.87 µM |
| O=C(NO)c1ccc(Cn2c(=O)n(-c3ccccc3)c(=O)c3ccccc32)cc1 | 2.33 µM | 13.6 µM | 1.73 µM | 60.2 µM | 1.44 µM | 9.19 µM | 1.38 µM | 2.98 µM |  |  | 1.02 µM | 8.08 µM | 1.55 µM | 3.92 µM | 1.26 µM | 2.62 µM |
| Oc1ccc2ccccc2c1N=Nc1ccc(Cl)cc1 |  | > 100 µM |  |  |  |  |  | > 100 µM |  | > 100 µM |  | > 100 µM |  | > 100 µM |  | 78.7 µM |
| O=C(O)c1cn(C2CC2)c2cc(N3CCNCC3)c(F)cc2c1=O | > 100 µM | > 100 µM | > 100 µM | > 100 µM | > 100 µM | > 100 µM |  |  | > 100 µM | > 100 µM | > 100 µM | > 100 µM | > 100 µM | > 100 µM |  |  |
| O=C1CC(c2ccsc2)c2snc(-c3ccc(Cl)cc3)c2N1 (stereo not drawn) | 0.626 µM | > 100 µM | 0.563 µM | > 100 µM | 0.581 µM | > 100 µM | 1.87 µM | 19.7 µM | 0.626 µM | 13.5 µM |  |  | 2.26 µM | > 100 µM | 1 µM | > 100 µM |
| COc1ccc(-c2nc(-c3ccccn3)c(-c3ccccn3)n2CC(C)C)cc1OC1CCCC1 | 9.02 µM | 65.1 µM | 6.58 µM | 115 µM | 32.1 µM | 99.7 µM | 9.56 µM | 106 µM | 31.4 µM | 81.3 µM |  |  | 50 µM | > 165 µM | 26.1 µM | 110 µM |
| COc1cc2cnc(-c3ccccc3)cc2cc1OC |  | 85.3 µM |  | > 100 µM |  | > 100 µM |  | 45.1 µM |  | 53 µM |  | 67.2 µM |  | 68.6 µM |  |  |
| Cc1cc(NCc2cc(Nc3ccnc4cc(Cl)ccc34)ccc2F)nc(N2CCSCC2)n1 | 2.92 µM | 21.8 µM | 1.64 µM | 4.18 µM |  |  | 1.31 µM | 2.76 µM | 1.96 µM | 4.49 µM | 1.92 µM | 4.68 µM |  |  | 1.47 µM | 2.79 µM |
| O=C(c1nn(-c2ccc(Cl)cc2)cc1O)n1nc(C(F)(F)F)cc1-c1ccccc1 | 6.51 µM | > 100 µM | 3.38 µM | > 100 µM | 0.767 µM | > 59.3 µM | 0.478 µM | > 65.6 µM |  |  | 1.41 µM | > 100 µM | 1.12 µM | > 100 µM | 1.88 µM | > 100 µM |
